From patent US20060079453A1, “Hla binding peptides and their uses” (priority 2002, published 2006)
No end group written: not given here.

Key:
Test in all cases: biochemical
Format in all cases: binding
HLA-DR DRB1*1302 (DR13) = HLA-DR DRB1*1302 (DR13) (Homo sapiens, UniProt P01903+P01911, A100E/A169T/K41T/L162R/M171V/P40S/Q125H/Q178H/Q39Y/Q99D/R42S/S66N/T262R/V115G/W38E/Y61H); conditions: DRBI *1302
HLA-DR DRB4*0101 (DR53) = HLA-DR DRB4*0101 (DR53) (Homo sapiens, UniProt P01903+P13762, G164S); conditions: DRB4 *0101
HLA-DR DRB3*0101 (DR52) = HLA-DR DRB3*0101 (DR52) (Homo sapiens, UniProt P01903+P79483)
HLA-DR DRB1*1501 (DR15) = HLA-DR DRB1*1501 (DR15) (Homo sapiens, UniProt P01903+P01911); conditions: DRBI *1501
HLA-DR DRB1*0802 (DR8) = HLA-DR DRB1*0802 (DR8) (Homo sapiens, UniProt P01903+P01911, A100R/A103L/A169T/F76Y/H45Y/I96F/K41T/L162R/M171V/P40S/Q125H/Q178H/Q39Y/Q99D/R218S/R42G/S66Y/V115G/W38E)
HLA-DR DRB1*0401 (DR4) = HLA-DR DRB1*0401 (DR4) (Homo sapiens, UniProt P01903+P01911, A100K/A169T/F76Y/I96L/K127E/L162R/M171V/N62H/P40V/Q125Y/R42H/S133A/S149N/S66Y/V115G/V209L/W38E); conditions: DRB1 *0401
HLA-DR DRB5*0101 (DR51) = HLA-DR DRB5*0101 (DR51) (Homo sapiens, UniProt P01903+Q30154); conditions: DRB5 *0101
HLA-DR DRB1*1101 (DR11) = HLA-DR DRB1*1101 (DR11) (Homo sapiens, UniProt P01903+P01911, A100R/A169T/A87E/I96F/K41T/L162R/M171V/P40S/Q125H/Q178H/Q39Y/Q99D/R42S/S66Y/T262R/V115G/W38E); conditions: DRB1 *1101
Chain of HLA-DR DRB1*1101 (DR11) (P01903 26-254 limits assumed, other chains not shown): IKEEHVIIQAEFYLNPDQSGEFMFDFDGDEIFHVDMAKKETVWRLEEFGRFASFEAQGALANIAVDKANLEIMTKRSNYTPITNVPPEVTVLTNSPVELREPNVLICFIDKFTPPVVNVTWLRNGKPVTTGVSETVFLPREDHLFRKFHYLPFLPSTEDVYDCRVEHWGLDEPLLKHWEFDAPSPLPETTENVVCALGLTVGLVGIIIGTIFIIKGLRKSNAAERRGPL

HLA-DR DRB1*0901 (DR9) = HLA-DR DRB1*0901 (DR9) (Homo sapiens, UniProt P01903+P01911, A100R/A103E/D57H/D86V/F55Y/F60I/F76Y/I96F/K127E/L162R/M171V/P40D/Q125H/Q99R/R33Q/R42F/S133A/S66N/T210M/V115G/W38K/Y107V/Y59G/Y89S); conditions: DRB1 *0901
HLA-DR DRB1*0301 (DR3) = HLA-DR DRB1*0301 (DR3) (Homo sapiens, UniProt P01903+P01911, A100K/A102G/A103R/A169T/F55Y/I96L/K41T/L162R/M171V/P40S/Q125H/Q178H/Q39Y/R42S/S66N/T106N/T262R/W38E/Y61H)
Chain of HLA-DR DRB1*0301 (DR3) (P01903 26-254 limits assumed, other chains not shown): as above

HLA-DR DRB1*0101 (DR1) = HLA-DR DRB1*0101 (DR1) (Homo sapiens, UniProt P01903+P01911, A100R/D57E/F55L/F60I/F76Y/I96L/L162R/M171V/P40L/Q125E/R42F/V115G/Y59C); conditions: DRB1 *0101
HLA-DR DRB1*0701 (DR7) = HLA-DR DRB1*0701 (DR7) (Homo sapiens, UniProt P01903+P01911, A100R/A102G/A103Q/D57E/D86V/E43K/F76Y/K127E/L162R/M171V/P40G/Q125H/Q99D/R33Q/R42Y/R54Q/S133A/S66F/T210M/V115G/Y107V/Y59L/Y89S); conditions: DRB1 *0701

Chain of HLA-DR DRB1*1302 (DR13) (P01903 26-254 limits assumed, other chains not shown): as above

Molecule | IC50 (HLA-DR DRB1*1302 (DR13)) | IC50 (HLA-DR DRB4*0101 (DR53)) | IC50 (HLA-DR DRB3*0101 (DR52)) | IC50 (HLA-DR DRB1*1501 (DR15)) | IC50 (HLA-DR DRB1*0802 (DR8)) | IC50 (HLA-DR DRB1*0401 (DR4)) | IC50 (HLA-DR DRB5*0101 (DR51)) | IC50 (HLA-DR DRB1*1101 (DR11)) | IC50 (HLA-DR DRB1*0901 (DR9)) | IC50 (HLA-DR DRB1*0301 (DR3)) | IC50 (HLA-DR DRB1*0101 (DR1)) | IC50 (HLA-DR DRB1*0701 (DR7))
LTELYFEKGEYFVEM | 3160 nM | 601 nM | 124 nM | > 2370 nM | 18800 nM | 8050 nM | 6660 nM | > 18900 nM | 26900 nM | 592 nM |  | 
TTLLRALGAQKEAIS | 1510 nM |  | 33300 nM | 89 nM | 652 nM | 339 nM | 21 nM | 860 nM | 4610 nM | 107000 nM | 19 nM | 4280 nM
CSCC[C@H](NC(=O)CNC(=O)CNC(=O)[C@H](CCCNC(=N)N)NC(=O)[C@@H](NC(=O)[C@H](CCC(N)=O)NC(=O)[C@H](C)NC(=O)[C@@H](NC(=O)[C@@H](NC(=O)[C@H](CC(C)C)NC(=O)[C@H](Cc1c[nH]cn1)NC(=O)[C@H](Cc1ccc(O)cc1)NC(=O)[C@@H](N)CCCCN)[C@@H](C)O)C(C)C)C(C)C)C(=O)N[C@H](C(=O)N[C@@H](Cc1ccccc1)C(=O)O)C(C)C | 193 nM |  | > 21900 nM | 1220 nM | 1520 nM | 806 nM | 86 nM | 859 nM | 5860 nM | 33700 nM | 137 nM | 228 nM
CSCC[C@H](NC(=O)[C@H](CC(C)C)NC(=O)[C@H](CCC(N)=O)NC(=O)[C@H](CC(=O)O)NC(=O)[C@H](CC(N)=O)NC(=O)[C@H](CCSC)NC(=O)[C@H](CCSC)NC(=O)[C@H](CCCNC(=N)N)NC(=O)[C@H](CC(C)C)NC(=O)[C@@H](N)C(C)C)C(=O)N[C@@H](Cc1ccccc1)C(=O)N[C@@H](CC(C)C)C(=O)N[C@@H](CCC(=O)O)C(=O)N[C@@H](CCCNC(=N)N)C(=O)N[C@@H](C)C(=O)O | 130 nM | 88 nM | 98 nM | 127 nM | 1700 nM | 29 nM | 85 nM | 2350 nM | 10700 nM | 183 nM |  | 
CC[C@H](C)[C@H](NC(=O)[C@@H]1CCCN1C(=O)[C@H](CC(N)=O)NC(=O)[C@@H](N)Cc1c[nH]c2ccccc12)C(=O)N[C@@H](CC(C)C)C(=O)N[C@@H](CC(C)C)C(=O)N[C@@H](Cc1c[nH]c2ccccc12)C(=O)N[C@@H](CCC(N)=O)C(=O)N1CCC[C@H]1C(=O)N[C@H](C(=O)N1CCC[C@H]1C(=O)N[C@H](C(=O)N[C@@H](Cc1c[nH]cn1)C(=O)N[C@H](C(=O)N[C@H](C(=O)O)C(C)C)[C@@H](C)O)C(C)C)[C@@H](C)CC | 2260 nM | 81 nM | > 8830 nM | 14 nM | 115000 nM | 695 nM | ≥ 100000 nM | 19600 nM | 607 nM | > 81800 nM | 208 nM | 
CC(C)C[C@H](NC(=O)CNC(=O)[C@H](Cc1ccccc1)NC(=O)[C@H](CCC(=O)O)NC(=O)[C@H](CCCCN)NC(=O)[C@@H](N)Cc1c[nH]c2ccccc12)C(=O)N[C@@H](CC(=O)O)C(=O)N[C@@H](CO)C(=O)N[C@H](C(=O)N[C@@H](CCC(=O)O)C(=O)N[C@@H](CC(C)C)C(=O)N[C@@H](C)C(=O)N[C@@H](Cc1c[nH]cn1)C(=O)N[C@@H](Cc1ccc(O)cc1)C(=O)N[C@@H](CC(=O)O)C(=O)O)C(C)C | 8410 nM | 5920 nM | 829 nM | 22800 nM | 20000 nM | 96 nM | 89400 nM | 4930 nM | 7050 nM | 85 nM | 1140 nM | 
CC[C@H](C)[C@H](NC(=O)[C@H](Cc1c[nH]c2ccccc12)NC(=O)[C@@H](NC(=O)[C@@H](NC(=O)[C@H](CO)NC(=O)[C@H](CC(C)C)NC(=O)[C@@H](N)[C@@H](C)O)C(C)C)[C@@H](C)O)C(=O)NCC(=O)N[C@@H](C)C(=O)N[C@@H](C)C(=O)N1CCC[C@H]1C(=O)N[C@@H](CC(C)C)C(=O)N[C@H](C(=O)N[C@@H](CC(C)C)C(=O)N[C@@H](CO)C(=O)O)[C@@H](C)CC | 642 nM |  | 6030 nM | 97 nM | 840 nM |  | 31 nM | 6860 nM | 5.4 nM | > 81800 nM | 3.1 nM | 16 nM
CSCC[C@H](NC(=O)[C@H](CC(C)C)NC(=O)[C@@H]1CCCN1C(=O)[C@@H](NC(=O)[C@H](CS)NC(=O)[C@H](CC(=O)O)NC(=O)[C@@H](NC(=O)[C@H](CCCNC(=N)N)NC(=O)[C@H](CC(C)C)NC(=O)[C@@H](NC(=O)[C@H](Cc1ccc(O)cc1)NC(=O)[C@@H](N)CC(N)=O)[C@@H](C)O)C(C)C)[C@@H](C)O)C(=O)N[C@@H](Cc1ccc(O)cc1)C(=O)N[C@@H](CO)C(=O)N[C@@H](CC(C)C)C(=O)O | 9 nM |  | 25 nM | 5060 nM | 6320 nM | 9.9 nM | 66700 nM | 7120 nM | 48400 nM | 45 nM | 6800 nM | 24600 nM
CC[C@H](C)[C@H](NC(=O)[C@@H]1CCCN1)C(=O)N[C@@H](CC(C)C)C(=O)N[C@@H](CC(C)C)C(=O)N[C@@H](Cc1c[nH]c2ccccc12)C(=O)N[C@@H](CCC(N)=O)C(=O)N1CCC[C@H]1C(=O)N[C@H](C(=O)N1CCC[C@H]1C(=O)N[C@H](C(=O)N[C@@H](Cc1c[nH]cn1)C(=O)N[C@H](C(=O)N[C@H](C(=O)N1CCC[C@H]1C(=O)N[C@@H](CC(C)C)C(=O)O)C(C)C)[C@@H](C)O)C(C)C)[C@@H](C)CC | 567 nM |  | > 8830 nM | 6.9 nM | 21200 nM | 258 nM | 41500 nM | 4040 nM | 168 nM | > 81800 nM | 44 nM | 46 nM
